Experiments:
BH3/Bcl-xL binding = experiment: SELDI binding assay, unlabeled Bak BH3 peptide on immobilized Bcl-xL-His6; conditions: for relative activity in SELDI assay: comparison between compounds
Text: To test the possibility that BH3Is target the OREGON GREEN moiety of the fluorescently labeled BH3 peptide, a novel BH3/Bcl-xL binding assay using unlabeled BH3 peptide was designed. In this assay Bcl-xL was covalently attached to a surface-enhanced laser desorption/ionization (SELDI) chip, and binding of the unlabelled BH3 peptide to the immobilized protein was monitored by mass spectrometry. Specifically, purified recombinant GST-Bcl-2 and BCL-xL-His6 were coupled through their primary amines to SELDI chip surfaces derivatized with carbonyldiimidazole (Ciphergen). Bak BH3 peptide was then added (in a total volume of 1 μl) for 12 hours at 4° C. in a humidified chamber, to allow binding to each spot of the SELDI chip. The chip was then washed with alternating high and low pH-0.1M sodium acetate with 0.5M NaCl, followed by 0.01M HEPES; pH 7.3. The samples were embedded in α-cyanno-4-hydroxycinnamaic acid matrix and analyzed for mass by MALDI TOF. An average of 100 laser shots at a constant setting were collected over 20 spots in each sample.

Bcl-xL = molecular target: T1, Bcl-xL (Homo sapiens, UniProt Q07817, DEL45-84); experiment: NMR titration of Bcl-xL; format: binding; conditions: for relative order of affinities, NMR titrations: rank order
T1 construct: His6 (C); made in house
Protocol: To verify this conclusion, NMR titrations of Bcl-xL with BH3I-1s were performed and their Ki values were determined (FIG. 4). […] The BH3I-1s Ki values obtained by the NMR approach agree with the results of both pulldown and SELDI analyses. Therefore, the order of affinities of BH3Is is: BH312′>BH3I-2>BH3I-2″>BH3I-1>BH3I-1′>BH3I-1″>BH3I-1′″.
NMR titration was used to examine whether BH3Iinteracts with the binding pocket of Bcl-xL in a manner similar to Bak BH3 peptide (Hajduk et al., Science 278:497-499, 1997).
Next, changes in Bcl-xL structure upon addition of increasing amounts of BH3Is were determined. Each of the BH3Is induced significant changes in the Bcl-xL structure. The compounds targeted the hydrophobic cleft formed by the BH1, BH2, and BH3 domains on the surface of the Bcl-xL protein, and primarily bound to the area formed by BH1 and BH2 domains.

Jurkat cells = experiment: Apoptosis in Jurkat cells (TUNEL, sub-G1 DNA, Annexin V); format: cell-based; conditions: BH3I-1 100 μM, BH3I-2 30 μM; for TUNEL staining: 48 hr; for sub-G1 DNA content: 72 hr, PI, FACS
Protocol: FIG. 6C is a series of FACS analysis graphs showing Annexin V staining of Jurkat cells. Jurkat cells were treated with BH3I-1 (100 μM) or BH3I-2 (30 μM) and were stained 4 or 6 hr later with Annexin V-EGFP/PI. The relative amounts of live, apoptotic, and late apoptotic/necrotic cells are shown.
To further examine the ability of BH3Is to induce apoptosis, Jurkat cells were treated with BH3I-1 (100 μM) (FIG. 6A, panels a and b), BH3I-2 (30 μM) (FIG. 6A, panels c and d) or DMSO (FIG. 6A, panels e and f) for 48 hr. The cells were then stained using Hoechst dye and a FragEL TUNEL kit (Oncogene Research Products). […] This was determined by treating Jurkat cells with BH3I-1 (100 μM) or BH3I-2 (30 μM), fixing them 72 hr later, and staining them with propidium iodide (PI). The samples were analyzed by FACS. Finally, BH3Is induced the appearance of Annexin V binding without an increase in PI staining (FIG. 6C).

[1] = molecular target: T2, U2AF35 / U2AF65 interaction (Homo sapiens, UniProt Q01081); experiment: Pulldown of splicing factors (specificity control); format: binding; conditions: selectivity control
T2 construct: made in house; host or cells: U2AF65: TNT wheat germ lysate (Promega)
T2 sequence (Q01081 1-240): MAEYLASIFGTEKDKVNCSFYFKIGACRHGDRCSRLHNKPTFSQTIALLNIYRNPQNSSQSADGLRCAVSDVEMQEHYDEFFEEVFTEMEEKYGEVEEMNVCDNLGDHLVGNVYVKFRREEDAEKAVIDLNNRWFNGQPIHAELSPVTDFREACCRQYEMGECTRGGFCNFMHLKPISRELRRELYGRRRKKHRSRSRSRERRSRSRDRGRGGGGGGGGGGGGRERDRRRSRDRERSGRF
Protocol: Next, it was determined whether BH3Is could disrupt the heterodimerization of Bcl-xL with pro-apoptotic proteins from the Bcl-2 family, such as truncated Bid (tBid). Truncation of Bid by caspase-8 activates Bid and dramatically increases its affinity towards anti-apoptotic Bcl-2 family members (Li et al., Cell 94:491-501, 1998). To perform this study, in vitro translation of tBid or U2AF^65 (control) was performed using TNT® Coupled Reticulocyte and Wheat Germ Lysate Systems (Promega) respectively. Bcl-xL, U2AF^35 (control) or corresponding amounts of original Ni-NTA agarose beads (blank) were pre-incubated with the BH3 inhibitors or peptide in 100 μl of PBS for 30 min at 25° C. Then 1 μl of ^35S-labeled tBID or U2AF^65 was added and incubation was continued for 2 hr at 4° C. The samples were subjected to SDS-PAGE, coomassie blue staining and autoradiography.
To determine the specificity of BH3Is, their ability to inhibit other protein-protein interactions was tested using the pulldown assay described above and the splicing factors U2AF^35 and U2AF^65 (Zhang et al, Proc. Natl. Acad. Sci. USA 89:8769-73, 1992). […] BH3Is (80 μM) also had no effect on the interaction between the Apaf-1 CARD domain fragment and caspase-9 in the SELDI assay.

FL5.12/Bcl-xL cells = experiment: Cell death upon IL-3 deprivation in Bcl-xL overexpressing cells; format: cell-based; conditions: PI staining
Text: This effect could be overcome by a higher dose of BH3Is (FIG. 9E). Inactivation of Bcl-xL by BH3Is in FL5.12/Bcl-xL cells was detected as an increase in cell death following IL-3 deprivation.

T1 sequence (Q07817 with tags, fused parts or gaps DEL45-84 limits assumed): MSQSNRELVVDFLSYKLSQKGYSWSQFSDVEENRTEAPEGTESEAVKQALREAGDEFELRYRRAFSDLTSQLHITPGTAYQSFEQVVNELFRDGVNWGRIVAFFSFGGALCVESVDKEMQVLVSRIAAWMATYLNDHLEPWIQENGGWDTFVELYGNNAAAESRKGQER

SMILES | effect on BH3 peptide binding to Bcl-xL-modified SELDI surface (BH3/Bcl-xL binding) | NOE magnetization transfer to Bcl-xL residues Y65 and F107 (Bcl-xL) | NMR derived Ki value, compared (Bcl-xL; compared with fluorescence polarization Ki of BH3I-2) | relative order of affinities, NMR titrations (Bcl-xL) | TUNEL staining (Jurkat cells) | sub-G1 DNA content (Jurkat cells) | effect on interaction between splicing factors [1] | cytotoxicity upon IL-3 deprivation (FL5.12/Bcl-xL cells) | relative activity in SELDI assay (BH3/Bcl-xL binding)
CC(C)C(C(=O)O)N1C(=O)C(=Cc2ccc(Br)cc2)SC1=S (stereo in doubt) [BH3I-1] | reduction of BH3 binding | direct contact between BH3I-1 and these residues | lower than the fluorescence polarization assay derived Ki value of BH3I-2 | BH3I-1>BH3I-1′>BH3I-1″>BH3I-1′″ | TUNEL positivity | displayed sub-G1 DNA content | Neither BH3I-1 nor BH3I-2 affected the interaction | significantly increased upon IL-3 deprivation | –
CC(C)C(C(=O)O)N1C(=O)/C(=C/c2ccccc2)SC1=S (stereo not shown) [BH3I-1″] | – | – | – | BH3I-1>BH3I-1′>BH3I-1″>BH3I-1′″ | – | – | – | – | lower potency than BH3I-1
O=C(Nc1cc(S(=O)(=O)c2ccc(Cl)cc2)ccc1Cl)c1cc(Cl)cc(Br)c1O [BH3I-2] | reduction of BH3 binding | – | – | – | TUNEL positivity | displayed sub-G1 DNA content | Neither BH3I-1 nor BH3I-2 affected the interaction | significantly increased upon IL-3 deprivation | higher activity than BH3I-1

Source: patent publication US7390836B2, “Small molecules used to increase cell death” (priority 1999, dated 2008)
